Results from ChEMBL document CHEMBL4251694 (ACS Med Chem Lett, 2018).
Activity calls are given as the source filed them. The calls are words filed in the database; no cut-off is given here.

Columns and labels:
[1] = Cytotoxicity against MDCK cells after 72 hrs by crystal violet staining based spectrophotometric method; format: cell-based, Canis lupus familiaris; conditions: dog
[2] = tested on: Influenza A virus; assay: Antiviral activity against Influenza A virus A/WSN/33 H1N1 infected in MDCK cells assessed as reduction in virus-induced cytopathic effect by crystal violet staining based light-microscopic analysis; format: functional, organism-based; conditions: A/WSN/1933(H1N1)
[3] = tested on: Influenza A virus; assay: Antiviral activity against Influenza A virus A/Udorn/72 H3N2 infected in MDCK cells assessed as reduction in plaque formation by crystal violet staining based assay; format: functional, organism-based; conditions: Influenza A virus (A/udorn/1972(H3N2))
[4] = tested on: Influenza A virus; assay: Antiviral activity against Influenza A virus A/Udorn/72 H3N2 infected in MDCK cells assessed as reduction in virus-induced cytopathic effect by crystal violet staining based light-microscopic analysis; format: functional, organism-based, Influenza A virus (A/udorn/1972(H3N2))
[5] = biological target: Matrix protein 2 (Influenza A virus (A/Udorn/307/1972(H3N2)), UniProt P0DOF8); assay: Inhibition of Influenza A virus A/Udorn/72 wild-type M2 proton channel expressed in Xenopus laevis oocytes assessed as blockade of inward currents at pH 5.5 after 5 mins by two-electrode voltage clamp assay; format: cell-based, Influenza A virus (A/udorn/1972(H3N2))
[6] = biological target: Matrix protein 2 (Influenza A virus (A/Udorn/307/1972(H3N2)), UniProt P0DOF8); assay: Inhibition of Influenza A virus A/Udorn/72 wild-type M2 proton channel expressed in Xenopus laevis oocytes assessed as blockade of inward currents at pH 5.5 after 2 mins by two-electrode voltage clamp assay; format: cell-based, Influenza A virus (A/udorn/1972(H3N2))
[7] = biological target: Matrix protein 2 (Influenza A virus (A/Udorn/307/1972(H3N2)), UniProt P0DOF8); assay: Binding affinity to Influenza A virus A/Udorn/72 wild-type M2 proton channel by isothermal calorimetric titration; design: species or system Influenza A virus (A/udorn/1972(H3N2))
[8] = tested on: Influenza A virus; assay: Antiviral activity against Influenza A virus (A/Hong Kong/68(H3N2)) infected in MDCK cells assessed as reduction in virus-induced cytopathic effect by crystal violet staining based light-microscopic analysis; format: functional, organism-based
[9] = biological target: Matrix protein 2 (Influenza A virus (A/Udorn/307/1972(H3N2)), UniProt P0DOF8); assay: Binding affinity to Influenza A virus A/Udorn/72 wild-type M2 proton channel expressed in Xenopus laevis oocytes at pH 5.5 by two-electrode voltage clamp assay; format: cell-based, Influenza A virus (A/udorn/1972(H3N2))
[10] = tested on: Influenza A virus; assay: Antiviral activity against Influenza A virus A/Udorn/72 H3N2 infected in MDCK cells assessed as reduction in plaque size by crystal violet staining based assay; format: functional, organism-based; conditions: Influenza A virus (A/udorn/1972(H3N2))

Matrix protein 2 (Influenza A virus (A/Udorn/307/1972(H3N2)), UniProt P0DOF8), sequence (P0DOF8 whole entry): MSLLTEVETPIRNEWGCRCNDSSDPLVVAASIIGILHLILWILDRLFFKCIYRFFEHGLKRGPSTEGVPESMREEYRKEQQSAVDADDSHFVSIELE

## C[C@H](N)C12CC3CC(CC(C3)C1)C2
[1]
  CC50 at 72 h: > 100 µM
[2]
  EC50: > 100 µM
[3]
  Activity: Active
[4]
  EC50: 0.06 µM

## CCC(N)(CC)C12CC3CC(CC(C3)C1)C2
[1]
  CC50 at 72 h: > 100 µM
[5]
  IC50: 13.2 µM
[2]
  EC50: > 100 µM
[3]
  Activity: Active
[6]
  IC50: 24.3 µM
[4]
  EC50: 0.41 µM
[7]
  Kd: 4.59 µM
[8]
  EC50: 0.46 µM

## CCOC(=O)C1=C[C@@H](OC(CC)CC)[C@H](NC(C)=O)[C@@H](N)C1 [OSELTAMIVIR]
[1]
  CC50 at 72 h: > 100 µM
[2]
  EC50: 0.03 µM
[4]
  EC50: 0.001 µM
[8]
  EC50: 0.002 µM

## CC(C)(N)C12CC3CC(CC(C3)C1)C2
[1]
  CC50 at 72 h: > 100 µM
[5]
  IC50: 4 µM
[2]
  EC50: > 100 µM
[3]
  Activity: Active
[6]
  IC50: 9.3 µM
[4]
  EC50: 0.01 µM
[7]
  Kd: 0.13 µM
[9]
  Kd: 13 µM
[8]
  EC50: 0.012 µM

## CCCC(N)(CCC)C12CC3CC(CC(C3)C1)C2
[1]
  CC50 at 72 h: 57.3 µM
[2]
  EC50: > 100 µM
[3]
  Activity: inactive
[4]
  EC50: 1.07 µM
[7]
  Kd: 3.43 µM
[9]
  Kd: 88 µM
[10]
  Activity: Active
[8]
  EC50: 0.45 µM

## CC(N)C12CC3CC(CC(C3)C1)C2 (stereo unspecified) [RIMANTADINE]
[1]
  CC50 at 72 h: > 100 µM
[2]
  EC50: > 100 µM
[3]
  Activity: Active
[4]
  EC50: 0.09 µM
[8]
  EC50: 0.05 µM

## NC12CC3CC(CC(C3)C1)C2 [AMANTADINE]
[1]
  CC50 at 72 h: > 100 µM
[2]
  EC50: > 100 µM
[3]
  Activity: Active
[4]
  EC50: 0.78 µM

## C[C@@H](N)C12CC3CC(CC(C3)C1)C2
[1]
  CC50 at 72 h: > 100 µM
[2]
  EC50: > 100 µM
[3]
  Activity: Active
[4]
  EC50: 0.05 µM
